Source: PubChem BioAssay (NCI)
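The concentration for 50% growth inhibition is given as GI50. The concentration for full growth arrest is given as TGI.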

Experiments:
Assay in all cases: NCI anticancer screen, dose series, 384-well format
T-47D breast = tested on: T-47D breast
SK-OV-3 ovarian = tested on: SK-OV-3 ovarian
MDA-MB-435 melanoma = tested on: MDA-MB-435 melanoma
HCT-116 colon = tested on: HCT-116 colon
NCI-H460 NSCLC = tested on: NCI-H460 NSCLC
NCI-H322M lung = tested on: NCI-H322M lung
CAKI-1 renal = tested on: CAKI-1 renal
PC-3 prostate = tested on: PC-3 prostate
SK-MEL-2 melanoma = tested on: SK-MEL-2 melanoma
SW-620 colon = tested on: SW-620 colon
DU-145 prostate = tested on: DU-145 prostate
OVCAR-8 ovarian = tested on: OVCAR-8 ovarian
COLO 205 colon = tested on: COLO 205 colon
SF-539 CNS = tested on: SF-539 CNS
RXF 393 renal = tested on: RXF 393 renal
MDA-MB-231 breast = tested on: MDA-MB-231 breast
OVCAR-3 ovarian = tested on: OVCAR-3 ovarian
HCC-2998 colon = tested on: HCC-2998 colon
RPMI-8226 leukemia = tested on: RPMI-8226 leukemia
A549 NSCLC = tested on: A549 NSCLC
SNB-75 CNS = tested on: SNB-75 CNS
MOLT-4 leukemia = tested on: MOLT-4 leukemia
M14 melanoma = tested on: M14 melanoma
OVCAR-5 ovarian = tested on: OVCAR-5 ovarian
TK-10 renal = tested on: TK-10 renal
786-0 renal = tested on: 786-0 renal
SN12C renal = tested on: SN12C renal
HL-60(TB) leukemia = tested on: HL-60(TB) leukemia
SR leukemia = tested on: SR leukemia
UO-31 renal = tested on: UO-31 renal
U251 glioblastoma = tested on: U251 glioblastoma
NCI/ADR-RES ovarian = tested on: NCI/ADR-RES ovarian
LOX IMVI melanoma = tested on: LOX IMVI melanoma
KM12 colon = tested on: KM12 colon
HS 578T breast = tested on: HS 578T breast
SF-268 CNS = tested on: SF-268 CNS
K-562 leukemia = tested on: K-562 leukemia
SF-295 CNS = tested on: SF-295 CNS
HOP-62 NSCLC = tested on: HOP-62 NSCLC
SK-MEL-28 melanoma = tested on: SK-MEL-28 melanoma
HCT-15 colon = tested on: HCT-15 colon
EKVX NSCLC = tested on: EKVX NSCLC
NCI-H23 lung = tested on: NCI-H23 lung
CCRF-CEM leukemia = tested on: CCRF-CEM leukemia
NCI-H226 lung = tested on: NCI-H226 lung
MCF7 breast = tested on: MCF7 breast
MDA-MB-468 breast = tested on: MDA-MB-468 breast
SK-MEL-5 melanoma = tested on: SK-MEL-5 melanoma
HT29 colon = tested on: HT29 colon
UACC-62 melanoma = tested on: UACC-62 melanoma
ACHN renal = tested on: ACHN renal
OVCAR-4 ovarian = tested on: OVCAR-4 ovarian
IGROV1 ovarian = tested on: IGROV1 ovarian
SNB-19 CNS = tested on: SNB-19 CNS
HOP-92 NSCLC = tested on: HOP-92 NSCLC
MALME-3M melanoma = tested on: MALME-3M melanoma
A498 renal = tested on: A498 renal
NCI-H522 lung = tested on: NCI-H522 lung

With `Cc1ccc(C(=O)N(CCCN)[C@@H](c2nc3cc(Cl)ccc3c(=O)n2Cc2ccccc2)C(C)C)cc1` the GI50 (T-47D breast) was < 10 nM, the TGI (T-47D breast) was 1300 nM and the GI50 (SK-OV-3 ovarian) was < 10 nM. The TGI (SK-OV-3 ovarian) was 1540 nM, the GI50 (MDA-MB-435 melanoma) was < 10 nM and the TGI (MDA-MB-435 melanoma) was < 10 nM. The GI50 (HCT-116 colon) was < 10 nM, the TGI (HCT-116 colon) was 1200 nM and the GI50 (NCI-H460 NSCLC) was < 10 nM. The TGI (NCI-H460 NSCLC) was < 10 nM, the GI50 (NCI-H322M lung) was < 10 nM and the TGI (NCI-H322M lung) was 1730 nM. For the same molecule, the GI50 (CAKI-1 renal) was < 10 nM, the TGI (CAKI-1 renal) was 1920 nM and the GI50 (PC-3 prostate) was < 10 nM. For the same molecule, the TGI (PC-3 prostate) was 1620 nM, the GI50 (SK-MEL-2 melanoma) was < 10 nM and the TGI (SK-MEL-2 melanoma) was < 10 nM. The GI50 (SW-620 colon) was < 10 nM, the TGI (SW-620 colon) was 1060 nM and the GI50 (DU-145 prostate) was < 10 nM. The TGI (DU-145 prostate) was < 10 nM, the GI50 (OVCAR-8 ovarian) was < 10 nM and the TGI (OVCAR-8 ovarian) was 1200 nM. The GI50 (COLO 205 colon) was < 10 nM, the TGI (COLO 205 colon) was < 10 nM and the GI50 (SF-539 CNS) was < 10 nM. The TGI (SF-539 CNS) was 20.2 nM, the GI50 (RXF 393 renal) was < 10 nM and the TGI (RXF 393 renal) was < 10 nM. For the same molecule, the GI50 (MDA-MB-231 breast) was < 10 nM, the TGI (MDA-MB-231 breast) was 1780 nM and the GI50 (OVCAR-3 ovarian) was < 10 nM. The TGI (OVCAR-3 ovarian) was < 10 nM, the GI50 (HCC-2998 colon) was < 10 nM and the TGI (HCC-2998 colon) was 112 nM. For the same molecule, the GI50 (RPMI-8226 leukemia) was < 10 nM, the TGI (RPMI-8226 leukemia) was < 10 nM and the GI50 (A549 NSCLC) was < 10 nM. The TGI (A549 NSCLC) was 1800 nM, the GI50 (SNB-75 CNS) was < 10 nM and the TGI (SNB-75 CNS) was 1950 nM. For the same molecule, the GI50 (MOLT-4 leukemia) was < 10 nM, the TGI (MOLT-4 leukemia) was < 10 nM and the GI50 (M14 melanoma) was < 10 nM. For the same molecule, the TGI (M14 melanoma) was < 10 nM, the GI50 (OVCAR-5 ovarian) was < 10 nM and the TGI (OVCAR-5 ovarian) was 1250 nM. The GI50 (TK-10 renal) was 94.9 nM, the TGI (TK-10 renal) was 2070 nM and the GI50 ([…]-0 renal) was < 10 nM. For the same molecule, the TGI (786-0 renal) was 1420 nM, the GI50 (SN12C renal) was < 10 nM and the TGI (SN12C renal) was 1790 nM. For the same molecule, the GI50 (HL-60(TB) leukemia) was < 10 nM, the TGI (HL-60(TB) leukemia) was < 10 nM and the GI50 (SR leukemia) was < 10 nM. The TGI (SR leukemia) was < 10 nM, the GI50 (UO-31 renal) was 1080 nM and the TGI (UO-31 renal) was 2290 nM. The GI50 (U251 glioblastoma) was < 10 nM, the TGI (U251 glioblastoma) was 1430 nM and the GI50 (NCI/ADR-RES ovarian) was 109 nM. For the same molecule, the TGI (NCI/ADR-RES ovarian) was 263 nM, the GI50 (LOX IMVI melanoma) was < 10 nM and the TGI (LOX IMVI melanoma) was 1530 nM. For the same molecule, the GI50 (KM12 colon) was < 10 nM, the TGI (KM12 colon) was 927 nM and the GI50 (HS 578T breast) was < 10 nM. For the same molecule, the TGI (HS 578T breast) was < 10 nM, the GI50 (SF-268 CNS) was < 10 nM and the TGI (SF-268 CNS) was 1650 nM. For the same molecule, the GI50 (K-562 leukemia) was < 10 nM, the TGI (K-562 leukemia) was < 10 nM and the GI50 (SF-295 CNS) was < 10 nM. The TGI (SF-295 CNS) was < 10 nM, the GI50 (HOP-62 NSCLC) was < 10 nM and the TGI (HOP-62 NSCLC) was 1950 nM. For the same molecule, the GI50 (SK-MEL-28 melanoma) was 1350 nM, the TGI (SK-MEL-28 melanoma) was 2640 nM and the GI50 (HCT-15 colon) was < 10 nM. The TGI (HCT-15 colon) was 1280 nM, the GI50 (EKVX NSCLC) was < 10 nM and the TGI (EKVX NSCLC) was 1220 nM. For the same molecule, the GI50 (NCI-H23 lung) was < 10 nM, the TGI (NCI-H23 lung) was 1080 nM and the GI50 (CCRF-CEM leukemia) was < 10 nM. The TGI (CCRF-CEM leukemia) was < 10 nM, the GI50 (NCI-H226 lung) was 1120 nM and the TGI (NCI-H226 lung) was 2340 nM. The GI50 (MCF7 breast) was < 10 nM, the TGI (MCF7 breast) was 1270 nM and the GI50 (MDA-MB-468 breast) was < 10 nM. The TGI (MDA-MB-468 breast) was < 10 nM, the GI50 (SK-MEL-5 melanoma) was < 10 nM and the TGI (SK-MEL-5 melanoma) was 14.7 nM. For the same molecule, the GI50 (HT29 colon) was < 10 nM, the TGI (HT29 colon) was 1000 nM and the GI50 (UACC-62 melanoma) was < 10 nM. For the same molecule, the TGI (UACC-62 melanoma) was 1400 nM, the GI50 (ACHN renal) was 1140 nM and the TGI (ACHN renal) was 2370 nM. The GI50 (OVCAR-4 ovarian) was < 10 nM, the TGI (OVCAR-4 ovarian) was 1890 nM and the GI50 (IGROV1 ovarian) was 1100 nM. For the same molecule, the TGI (IGROV1 ovarian) was 2320 nM, the GI50 (SNB-19 CNS) was < 10 nM and the TGI (SNB-19 CNS) was 1740 nM. For the same molecule, the GI50 (HOP-92 NSCLC) was < 10 nM, the TGI (HOP-92 NSCLC) was 1700 nM and the GI50 (MALME-3M melanoma) was < 10 nM. The TGI (MALME-3M melanoma) was 1890 nM, the GI50 (A498 renal) was < 10 nM and the TGI (A498 renal) was 1810 nM. The GI50 (NCI-H522 lung) was < 10 nM and the TGI (NCI-H522 lung) was < 10 nM.
